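Results reflect a 48-hour exposure of cells in 96-well plates to compound at five concentrations. The concentration for 50% growth inhibition is given as GI50.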 Calls of active or inactive are those of the source. Cut-off read from the data, not from the text of the source: active = GI50 up to about 1.1 µM and inactive = higher. Bridge positions count the residues as written; N and C are the ends. Where a SMILES comes first, the peptide text is derived from it. Peptide text beside a SMILES is read from it. [ ]: non-standard residue; d: D form. * marks the point of attachment. Aoe = N[C@@H](CCCCCC(=O)[C@@H]1CO1)C(=O)O; Cbz = O=C(OCc1ccccc1)*

Results on eight molecules are retold here after ChEMBL document CHEMBL1201862, “PubChem BioAssay data set” (2004).

Some test systems named below: HOP-92; SN12C; ACHN; EKVX; Malme-3M; T47D; SNB-75; MOLT-4; SK-MEL-5; HCC 2998; TK-10; MDA-N; MCF7; KM12; A549; HCT-116; NCI-H226; UACC-257; NCI-H23; SF-539.
Common to all, as to test: growth of human tumour cells (NCI), 48 h

Take `O=C1N[C@@H](Cc2ccccc2)C(=O)N2CCC[C@@H]2C(=O)N[C@@H](CCCCCC(=O)[C@@H]2CO2)C(=O)N[C@H]1Cc1ccccc1` [TRAPOXIN B] (cyclo(FF[dP][Aoe])): the GI50 in the experiment on HOP-92 was 0.00574 µM (active); in the experiment with SN12C, 0.0104 µM (active); in the experiment on ACHN it was 0.00124 µM (active); in the experiment with EKVX it was 0.0632 µM (active); with Malme-3M, < 0.000212 µM (active); with T47D, 0.0034 µM (active). Further, the GI50 in the experiment with SNB-75 was 0.00366 µM (active); in the experiment with MOLT-4, < 0.000212 µM (active); in the experiment on SK-MEL-5 it was 0.000497 µM (active); in the experiment on HCC 2998 it was 0.0343 µM (active); in the experiment with TK-10 it was 0.00368 µM (active); with MDA-N, 0.000512 µM (active). Further, the GI50 is 0.000553 µM (active) in the experiment with MCF7; 0.000735 µM (active) in the experiment with KM12; 0.00265 µM (active) with A549; 0.000256 µM (active) in the experiment with HCT-116; 0.222 µM (active) in the experiment on NCI-H226.
As for `CN(C)CCC(C(=O)C(C)(C)C)c1ccccn1` (centres undefined), the GI50 in the experiment with HOP-92, in the experiment on SN12C, with UACC-257, in the experiment with ACHN, in the experiment on EKVX and in the experiment on NCI-H23 was > 100 µM (inactive) throughout. Moreover, the GI50 with Malme-3M, in the experiment with T47D, in the experiment with SNB-75, in the experiment on SK-MEL-5, in the experiment on HCC 2998 and in the experiment on TK-10 was > 100 µM (inactive) in each case. Moreover, the GI50 with MDA-N, with MCF7, in the experiment with KM12, in the experiment on A549, with HCT-116 and with NCI-H226 was > 100 µM (inactive) in each case.
For `CN(C)C(=O)c1nnsc1NN=O`, the GI50 with HOP-92, in the experiment with SN12C, in the experiment with UACC-257, in the experiment with ACHN, in the experiment with EKVX and in the experiment on NCI-H23 was > 100 µM (inactive) in each case. In addition, the GI50 in the experiment with Malme-3M, in the experiment on T47D, in the experiment on SNB-75, in the experiment with MOLT-4, in the experiment on SK-MEL-5 and in the experiment on HCC 2998 was > 100 µM (inactive) in each case. Moreover, the GI50 with MDA-N, in the experiment on MCF7, with KM12, in the experiment with A549, with HCT-116 and in the experiment with NCI-H226 was > 100 µM (inactive) throughout.
With `CNC(=O)C1CCCCNC(=O)CCC(NC(=O)OCc2ccccc2)C(=O)N1` (stereo not drawn) (Cbz-Glu-Lys-NHMe; lactam 1-2; configuration not given here), the GI50 in the experiment with HOP-92, with SN12C, with UACC-257, in the experiment on ACHN, in the experiment with EKVX and in the experiment with NCI-H23 was > 100 µM (inactive) throughout. Besides, the GI50 in the experiment with Malme-3M, in the experiment on T47D, with SNB-75, in the experiment with SF-539, in the experiment with MOLT-4 and with SK-MEL-5 was > 100 µM (inactive) in each case. The GI50 in the experiment on TK-10, in the experiment on MDA-N, in the experiment with MCF7, with KM12, with A549 and in the experiment on HCT-116 was > 100 µM (inactive) each time. In the experiment with NCI-H226, the GI50 was > 100 µM (inactive).
As to `CN1C/C(=C\c2cccs2)C2=NC(=S)NC(c3cccs3)C2C1` (centres undefined), the GI50 was 33.6 µM (inactive) in the experiment with HOP-92; > 100 µM (inactive) in the experiment with SN12C; 36.6 µM (inactive) with UACC-257; 64.9 µM (inactive) in the experiment on ACHN; 56.4 µM (inactive) in the experiment with EKVX; 77.6 µM (inactive) with NCI-H23. In addition, the GI50 is 16 µM (inactive) with Malme-3M; 24.9 µM (inactive) in the experiment on T47D; 19.5 µM (inactive) in the experiment with MOLT-4; 33.6 µM (inactive) with SK-MEL-5; 93.8 µM (inactive) with HCC 2998; 46.1 µM (inactive) in the experiment with TK-10. In addition, the GI50 in the experiment on MDA-N is 66.1 µM (inactive); in the experiment with MCF7, 35.6 µM (inactive); with KM12, 57 µM (inactive); with A549, 50.7 µM (inactive); in the experiment with HCT-116 it was 64.4 µM (inactive); in the experiment on NCI-H226, > 100 µM (inactive).
Consider `Cc1ccc(S(=O)(=O)O)cc1.c1cc2c(c(NC3=NCCN3)c1)CCCC2`, for which the GI50 in the experiment with HOP-92, in the experiment with SN12C, in the experiment with UACC-257, with ACHN, in the experiment on EKVX and with NCI-H23 was > 100 µM (inactive) each time. Also, the GI50 in the experiment on Malme-3M was > 100 µM (inactive); in the experiment with T47D, > 100 µM (inactive); with SNB-75, 89.3 µM (inactive); in the experiment on SF-539, > 100 µM (inactive); in the experiment on MOLT-4, > 100 µM (inactive); in the experiment with SK-MEL-5, > 100 µM (inactive). Besides, the GI50 in the experiment on TK-10, in the experiment with MDA-N, with MCF7, in the experiment with KM12, in the experiment with A549 and with HCT-116 was > 100 µM (inactive) each time. In the experiment with NCI-H226, the GI50 is > 100 µM (inactive).
Turning to `c1ccc(CNCCCCNCCCNCc2ccccc2)cc1`, the GI50 in the experiment on HOP-92 was 11.8 µM (inactive); in the experiment with SN12C, 19.8 µM (inactive); in the experiment on UACC-257, 17.3 µM (inactive); in the experiment with ACHN it was 15.7 µM (inactive); in the experiment with EKVX, 25.6 µM (inactive); with NCI-H23, 22 µM (inactive). The GI50 is 15.5 µM (inactive) with Malme-3M; > 100 µM (inactive) in the experiment on T47D; 19.4 µM (inactive) with SNB-75; 14.3 µM (inactive) in the experiment with MOLT-4; 17.6 µM (inactive) with SK-MEL-5; 16.9 µM (inactive) with HCC 2998. For the same molecule, the GI50 was 19.8 µM (inactive) with TK-10; 12.9 µM (inactive) with MDA-N; > 100 µM (inactive) with MCF7; 20 µM (inactive) with KM12; 17.4 µM (inactive) in the experiment with A549; 17.3 µM (inactive) in the experiment with HCT-116. In addition, the GI50 with NCI-H226 was 20.2 µM (inactive).
As to `Clc1cccc(-c2sc(-c3ccsc3)cc2Cc2ccsc2)c1`, the GI50 in the experiment with HOP-92, in the experiment with SN12C, in the experiment on UACC-257, in the experiment with EKVX, in the experiment with NCI-H23 and in the experiment on Malme-3M was > 10 µM (inactive) throughout. Moreover, the GI50 was 8 µM (inactive) with T47D; > 10 µM (inactive) in the experiment with SNB-75; > 10 µM (inactive) with MOLT-4; > 10 µM (inactive) in the experiment with SK-MEL-5; > 10 µM (inactive) with HCC 2998; > 10 µM (inactive) in the experiment with TK-10. In addition, the GI50 in the experiment with MDA-N, in the experiment on MCF7, with KM12 and with A549 was > 10 µM (inactive) throughout.
